Source: US20050203013A1, “Methods for inhibiting vascular permeability” (priority 2002, published 2005)
Where two headings read alike, the source gives them in different places.

Assays:
VEGFR-2 = VEGFR-2 phosphorylation in HMVEC-d; assay type: cell-based, Human; settings: 5 ng/ml for 2 hours
Experimental: Serum-starved (0.1% FBS in EBM-2 media for 24 hours) HMVEC-d or HUVEC were treated with 5 ng/ml TNP-470 and HPMA copolymer-TNP-470 at 37° C. for 2 hours, and then stimulated with 10 ng/ml of VEGF for 5 minutes. Stimulation was stopped by adding cold PBS. […] After washing the beads with precipitation buffer, immunoprecipitates were resuspended in 2× SDS sample buffer for Western blot analysis with an antibody against phosphorylated tyrosine (pTyr).

[1] = test system: Bovine adrenal capillary endothelial cells; assay: BCE proliferation assay; assay type: cell-based; settings: challenged with bFGF, 72 h
Experimental: Bovine adrenal capillary endothelial cells were seeded on gelatinized plates (15,000/well). Following 24 h incubation, cells were challenged with free and conjugated TNP-470, and bFGF (1 ng/ml) was added to the medium. Cells were counted after 72 h.

ear swelling = assay: Delayed-type hypersensitivity reaction elicited by oxazolone; assay type: in vivo, C57B1/6J mice
Experimental: Delayed-type hypersensitivity (DTH) reactions were induced in the skin of 8-week-old C57B1/6J male mice (n=5) as previously described (Dvorak et al., 1984). In order to induce an immune response to oxazolone, mice were first sensitized by topical application of 2% oxazolone solution in vehicle, acetone: olive oil (4:1 vol/vol), to the shaved abdomen (50 μl) and to each paw (5 μl). Mice were treated with TNP-470 (30 mg/kg s.c.) for three days prior to the second challenge with oxazolone. Five days after sensitization, the right ears were challenged by topical application of 10 μl of a 1% oxazolone solution; the left ears were treated with vehicle alone. Ear thickness was then measured daily for up to 7 days as a measure of inflammation intensity (Gad et al., 1986). Statistical analysis was performed using the unpaired Student t test. Some mice from each experimental group were euthanized 24 hours after oxazolone challenge (n=5 per group). One half of each ear was fixed in 10% formalin and was processed, embedded in paraffin and stained for H & E. The other half was embedded in OCT compound (Sakura Finetek, Torrance, Calif.) and snap-frozen in liquid nitrogen. Immunohistochemical staining was performed on 5 μm cryostat sections using a Vecstatin avidin-biotin detection system (Vector Labs, Burlingame, Calif.) with rat monoclonal antibodies against mouse CD31 (dilution 1:250, Pharmingen, San Diego, Calif.) according to the manufacturers' instructions.

RhoA = RhoA activation assay; assay type: cell-based, Human; settings: HMVEC-d
Experimental: • pGST-TRBD bacteria were grown and induced with isopropyl-thiogalactoside. The bacterial suspensions were divided into 50 ml aliquots and then harvested and frozen at −80° C. To prepare the GST-TRBD beads, each aliquot of frozen bacteria was resuspended in 2 ml of cold PBS, and then 20 μl of 1 M dithiothreitol (DTT), 20 μl of 0.2 M PMSF, and 40 μl of 50 mg/ml lysozyme were added. The sample was incubated on ice for 30 minutes. Next, 225 μL of 10% Triton X-100, 22.5 μL of IM MgCl2, 22.5 μl of 2000 KU/ml DNAse were added and the sample was incubated on ice for another 30 min. The supernatant was collected and incubated with 100 μl glutathione-coupled Sepharose 4B beads (Pharmacia Biotech) at 4° C. for 45 minutes. The beads were then washed with bead washing buffer (PBS with 10 mM DTT and 1% Triton X-100) and resuspended in the same buffer to give a 50% bead slurry.
Meanwhile, 24 hours serum-starved HMVEC-d cells were treated with 5 ng/ml TNP-470 at 37° C. for 2 hours, and then stimulated with 10 ng/ml of VEGF, PAF (10 nM), or histamine ([…]) for 5 minutes. Stimulation was stopped by adding cold PBS. Cells were lysed with lysis buffer (150 mM NaCl, 0.8 mM MgCl2, 5 mM EGTA, 1% IGEPAL, 50 mM HEPES, pH 7.5, 1 mM PMSF, 10 μg/ml leupeptin, and 10 μg/ml aprotinin). The supernatant was isolated and incubated with 50 μl of GST-TRBD beads at 4° C. for 45 minutes. Protein bound to beads was washed with AP wash buffer (50 mM Tris-HCl, pH 7.2, 1% Triton X-100, 150 mM NaCl, 10 mM MgCl2, 1 mM PMSF, 10 μg/ml leupeptin, and 10 μg/ml aprotinin) and analyzed by SDS-PAGE with an antibody against RhoA (Santa Cruz Biotechnology, CA).

[2] = test system: U87 glioblastoma tumor blood vessel permeability; assay: Miles assay on tumor-bearing mice (Example 3), U87; parameters: species or system SCID mice; settings: mouse, in vivo
Experimental: Female SCID mice ( 8 weeks, 20 g) were inoculated s.c. with 5×10^6 viable U87 glioblastoma cells or viable A2058 human melanoma cells or BXPC3 pancreas adenocarcinoma cells. Female nu/nu mice were inoculated with MCF-7 or MDA-MB-231 breast carcinoma cells in the mammary fat pad. C57B1/6J were inoculated with LLC. […] blue dye was then injected i.v. and extravasation of dye assessed as above. Also, blood was withdrawn to measure VPF/VEGF levels in plasma and in tumors (n=5 from each group). Tumors (n=5 per group) were dissected, weighed and cut in half. Half of the tumor was placed in formalin and half was analyzed for VPF/VEGF protein by ELISA (see below). Formalin fixed tumors were processed for sectioning and staining with H & E, CD31, smooth muscle actin (SMA) and proliferating cell nuclear antigen (PCNA) according to the manufacturers' instructions.

[3] = test system: LLC, A2058, MCF-7, MDA-MB-231, BXPC3, U87 tumors; settings: cited from earlier work

## CO[C@@H]1[C@H](OC(=O)NC(=O)CCl)CC[C@]2(CO2)[C@H]1[C@@]1(C)O[C@@H]1CC=C(C)C [TNP-470]
VEGFR-2
  VPF/VEGF-induced phosphorylation of VEGFR-2: significantly reduced
[1]
  BCE cell growth: inhibited
Ear swelling; 24 hours after challenge
  inflammatory response (histology): dramatically reduced
Ear swelling; 24 hours after oxazolone challenge, P<0.01
  ear swelling and erythema vs control mice: significantly reduced ear swelling and erythema
Ear swelling; 48 hours, P<0.01
  difference in ear swelling vs control mice: persisted
Ear swelling; 4 days
  difference in ear swelling vs control mice: differences had disappeared
RhoA
  PAF-induced RhoA activation: inhibited
  VPF/VEGF-induced RhoA activation: significantly suppressed
  histamine-induced RhoA activation: inhibited
[2]
  Evan's blue extravasation into U87 glioblastomas: did not inhibit
[3]; U87 glioblastoma in mice
  tumor growth inhibition: 95%
[3]; all tumor models studied
  tumor growth inhibition: 60-95%
